Like-named read-outs stand apart in the source and are kept apart here.
How the values were obtained:
[1] = pH 7, cited from earlier work
Douglas-fir seedlings = experiment: Pot test with Douglas-fir seedlings: seedling height growth; assay type: in vivo; settings: Fig. 4: 24 weeks after the treatment date
Description: (§1) The following granular herbicide formulations were used: • (a) 2,4-D 5%, melamine 71%, urea 24% • (b) 2,4-D 4.7%, melamine 88.1%, resin solids 7.2% • (c) 2,4-D/KL (a controlled release formulation of 2,4-D with kraft lignin 10%, melamine 72%, urea 18% • (d) Velpar® herbicide 5.35%, melamine 90.35%, resin solids 4.3% (V/MI) • (e) b and d, applied together • (f) control, no treatment • (g) technical 2,4-D treatment
(§2) Douglas-fir seedlings (2.0) were planted in 10" (25 cm) diameter pots. Each of the above five granule treatments was applied to three potted firs. Two control sets of potted seedlings had respectively no treatment, and an application of commercial 2,4-D, for comparison. In the application of the commercial 2,4-D, the fine powdered material was applied evenly to the soil surface, using the same 2,4-D material employed in making the granular formulations.
(§3) The 2,4-D was applied in all sets at the equivalent rate of 22.7 kg ai/ha and the Velpar® herbicide at 23.8 kg ai/ha (ai = active ingredient).
(§4) These sets were monitored for seedling height growth, growth quality of the seedling, and weed growth surrounding the seedling, represented as a % of soil surface.
In the drawings, Figs. 1 and 3 compare the weed growth observed following soil treatment, using the pot-planted Douglas fir seedlings. […]

[2] = Rate of release from granules in dialysis tubing into a water bath; assay type: physicochemical; settings: after 8-9 days
Method: Each of these formulations was made up into granules that were screened to fall within the size range of 0.84 to 1.41 mm.
In order to make measurements on the amount of herbicide released from each set of granules, a sample was taken of each. The sample was placed in dialysis tubing. The tubing was submerged in a covered container of distilled water containing 10 liters of water at 22°C. The solution was agitated and 10 ml. aliquots were removed at appropriate times.
The aliquots were subjected to analyses by an ultra-violet spectrophotometer at 203, 247 and 284 nm. respectively, for determination of the contents of melamine and herbicide.

Alfalfa seeds = experiment: Pot test: germination of alfalfa seeds on treated soil; assay type: in vivo
Description: The effectiveness of these granular materials in preventing the germination of alfalfa seeds was used as an assay of the continued performance of the 2,4-D admixed with the melamine compositions. As long as significant quantities of 2,4-D are present, alfalfa seed will not germinate completely. When the alfalfa seeds receiving the treatment germinate comparably to seeds which received no treatment, the period of effectiveness of the 2,4-D has ended.
Alfalfa seeds (1 gram) were planted on the surface of sieved unsterile compost soil in 2½ in. x 2½ in. (6.3 cm x 6.3 cm) plastic pots. Each test pot stood in a plastic saucer in order to avoid contamination between pots. After introduction of the seeds, the pots were well watered from the top and covered with another plastic dish until germination was established. This avoided unnecessary drying out of the soil and maintained an intimate moist atmosphere for seed germination. All test pots were kept in a controlled temperature room at 70°F for the duration of the trial. After germination was established the covers were removed to avoid any restriction of seedling growth. Seeds and plants were monitored daily, watered evenly as necessary, and growth changes recorded.
A series of four pot treatments was set up as follows: • (a) control pots to which no chemical was applied; • (b) 2,4-D alone (applied at a rate equivalent to 22.7 kg of 2,4-D/ ha ); • (c) 2,4-D/melamine granules of Example 1 (applied at a rate equivalent to 22.7 kg of 2,4-D/ha ); and • (d) melamine granules (not containing 2,4-D) in an amount equal to that used in treatment (c).
The melamine/binder ratio was essentially the same in the granules used in treatments (c) and (d), the difference being in the presence or absence of 2,4-D. The granules were used by distributing them over the soil surfaces in the pots.
For each treatment, replicates of three pots were set up in four groups (A), (B), (C) and (D) so that alfalfa seeds could be planted on undisturbed soil for each of the following three weeks. All pots in each series were treated equally from the outset with respect to applied material, watering and light. The experiment was started when the treatments were applied to all of the pots by sprinkling the applied material on the surface of the soil, and pots (A) were planted. One week later, alfalfa seeds were planted in pots (B). Another week later, pots (C) were planted with alfalfa seeds and finally three weeks after application of the chemicals, pots (D) were planted with alfalfa seeds.
The pots in the four groups of pots A, B, C and D thus were treated at the same time, some pots receiving treatment (a): no chemical applied, to provide a control; some treatment (b): 2,4-D alone applied; and so on. […]

weeds = experiment: Pot test with Douglas-fir seedlings: weed growth on the soil surface; assay type: in vivo
Description: as §1, §2, §3, §4
There were no visible weeds present on the soil at the time of treatment. However, volunteer weed seeds were always present in the atmosphere and daily settled on the soil surface. […]

[3] = Table II (Example 3), soil treatment applied at 0 days, 22.7 kg of 2,4-D/ha

Nc1nc(N)nc(N)n1.O=[N+]([O-])O [Melamine Nitrate]
Solubility (g/100g) [1]: 0.85 g/100g

N#CNC(=N)N [Dicyandiamide]
Solubility (g/100g) [1]: 2.26 (at 13°C) g/100g

Nc1nc(N)nc(O)n1 [Ammeline]
Solubility (g/100g) ([1]; water at 20°C): 0.008 g/100g

NC(N)=O [Urea]
Solubility (g/100g) ([1]; water, at 25°C): 119.3 (at 25°C) g/100g

Nc1nc(N)nc(-c2ccccc2)n1 [Benzoguanamine]
Solubility (g/100g) ([1]; water, 22°C): 0.06 (22°C) g/100g

Nc1nc(N)nc(N)n1 [Melamine]
Solubility (g/100g) ([1]; water at 20°C): 0.50 g/100g

O=c1[nH]c(=O)[nH]c(=O)[nH]1 [Cyanuric Acid]
Solubility (g/100g) [1]: 0.27 g/100g

Potassium Acid Sulfate
Solubility (g/100g) [1]: 51.4 g/100g

O=C(O)COc1ccc(Cl)cc1Cl [2,4-D, 2,4-dichlorophenoxyacetic acid]
mean height growth (Douglas-fir seedlings): 28 cm. | height growth greater than the non-treated control (Douglas-fir seedlings; control 20 cm): 40% | herbicide entered the bath [2]: 100% | mortality or aborted germination (Alfalfa seeds; Example 3, (A) pots, planted at 0 days): 100% | Extent of Germination (B) Pots Planted; 7 Days Later (Alfalfa seeds; [3]): 80% | Extent of Germination (C) Pots Planted; 14 Days Later (Alfalfa seeds; [3]): 90% | Extent of Germination (D) Pots Planted; 21 Days Later (Alfalfa seeds; Table II (Example 3), soil treatment applied at 0 days, 22.7 kg of 2,4-D/ha, listed as 2,4-D alone): germinating as well as the controls | weed control (in words) (weeds; 2,4-D 22.7 kg ai/ha, Velpar herbicide 23.8 kg ai/ha): initially gave good weed control | weed population occupied % of the soil surface (weeds; by fourteen weeks, 22.7 kg ai/ha): ~90%

Nc1nc(O)nc(O)n1 [Ammelide]
Solubility (g/100g) ([1]; water at 20°C): less than 0.008 g/100g

Reference: EP0135714B1, “Sustained release compositions for biologically active materials” (MELAMINE CHEMICALS, INC., priority 1983, dated 1985)
